This is an account of results in patent US20190048016A1, “SUBSTITUTED BRIDGED UREA ANALOGS AS SIRTUIN MODULATORS” (GlaxoSmithKline Intellectual Property(No.2)Limited, priority 2014, published 2019).

The test addresses T1, SIRT1 (Homo sapiens, UniProt Q96EB6).
T1 sequence (Q96EB6 1-747): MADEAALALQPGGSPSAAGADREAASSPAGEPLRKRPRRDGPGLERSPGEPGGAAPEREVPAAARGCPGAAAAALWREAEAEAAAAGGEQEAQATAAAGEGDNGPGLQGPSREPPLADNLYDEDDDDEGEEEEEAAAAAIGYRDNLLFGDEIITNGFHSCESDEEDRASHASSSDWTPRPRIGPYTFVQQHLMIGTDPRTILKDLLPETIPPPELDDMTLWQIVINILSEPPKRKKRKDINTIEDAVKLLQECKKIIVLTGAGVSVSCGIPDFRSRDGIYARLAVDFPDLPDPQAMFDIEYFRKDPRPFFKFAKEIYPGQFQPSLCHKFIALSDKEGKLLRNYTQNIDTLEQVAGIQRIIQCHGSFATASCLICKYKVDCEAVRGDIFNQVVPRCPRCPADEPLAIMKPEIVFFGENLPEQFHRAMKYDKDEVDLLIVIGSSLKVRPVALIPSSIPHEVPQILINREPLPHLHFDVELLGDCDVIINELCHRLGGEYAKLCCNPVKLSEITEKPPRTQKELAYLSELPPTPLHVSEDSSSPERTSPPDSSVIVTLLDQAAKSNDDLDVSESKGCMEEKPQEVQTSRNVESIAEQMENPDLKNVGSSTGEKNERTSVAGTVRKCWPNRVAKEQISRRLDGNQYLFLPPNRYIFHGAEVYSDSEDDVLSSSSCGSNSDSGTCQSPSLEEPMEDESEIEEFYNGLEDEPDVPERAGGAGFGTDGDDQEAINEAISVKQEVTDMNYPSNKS
Nature of the test: Trp mass spectrometry assay of SIRT1 activation (deacetylation of Ac-R-H-K-K(Ac)-W-NH2 peptide, OAADPR formation). Conditions: Trp peptide 0.5 μM, 120 μM βNAD+, 10 nM SIRT1, 25 min, 25° C.; for Emax: 25 min, read-out: TRP MAX RESP (percent maximum fold activation relative to control = 100%). The class given is biochemical. The source says: Mass spectrometry based assays were used to identify modulators of SIRT1 activity. The TAMRA based assay utilized a peptide having 20 amino acid residues as follows: Ac-EE-K(biotin)-[…](Ac)NleSTEG-K(5TMR)-EE-NH2 (SEQ ID NO: 1), wherein K(Ac) is an acetylated lysine residue and Nle is a norleucine. The peptide was labeled with the fluorophore 5TMR (excitation 540 nm/emission 580 nm) at the C-terminus. The sequence of the peptide substrate was based on p53 with several modifications. In addition, the methionine residue naturally present in the sequence was replaced with the norleucine because the methionine may be susceptible to oxidation during synthesis and purification. The Trp based assay utilized a peptide having an amino acid residues as follows: Ac-R-H-K-K(Ac)-W-NH2 (SEQ ID NO: 2).
The Trp mass spectrometry assay was conducted as follows. 0.5 μM peptide substrate and 120 μM βNAD^+ were incubated with 10 nM SIRT1 for 25 minutes at 25° C. in a reaction buffer (50 mM HEPES pH 7.5, […], 1 mM DTT, 0.05% BSA). The SIRT1 protein was obtained by cloning the SirT1 gene into a T7-promoter containing vector, which was then expressed in BL21(DE3) bacterial cells and purified as described in further detail below. Test compound was added at varying concentrations to this reaction mixture and the resulting reactions were monitored. After the 25 minute incubation with SIRT1, 10 μL of 10% formic acid was added to stop the reaction. The resulting reactions were sealed and frozen for later mass spec analysis. The relative SIRT1 activity was then determined by measuring the amount of O-acetyl-ADP-ribose (OAADPR) formed (or, alternatively, the amount of deacetylated Trp peptide generated) by the NAD-dependent sirtuin deacetylation reaction in the presence of varying concentrations of the test compound versus control reactions lacking the test compound. The degree to which the test agent activated deacetylation by SIRT1 was expressed as EC1.5 (i.e., the concentration of compound required to increase SIRT1 activity by 50% over the control lacking test compound), and Percent Maximum Activation (i.e., the maximum activity relative to control (100%) obtained for the test compound).
A control for inhibition of sirtuin activity was conducted by adding 1 μL of 500 mM nicotinamide as a negative control at the start of the reaction (e.g., permits determination of maximum sirtuin inhibition). A control for activation of sirtuin activity was conducted using 10 nM of sirtuin protein, with 1 μL of DMSO in place of compound, to determine the amount of deacetylation of the substrate at a given time point within the linear range of the assay. This time point was the same as that used for test compounds and, within the linear range, the endpoint represents a change in velocity.
For the above assay, SIRT1 protein was expressed and purified as follows. The SirT1 gene was cloned into a T7-promoter containing vector and transformed into BL21(DE3). The protein was expressed by induction with 1 mM IPTG as an N-terminal His-tag fusion protein at 18° C. overnight and harvested at 30,000×g. Cells were lysed with lysozyme in lysis buffer (50 mM Tris-HCl, 2 mM Tris[2-carboxyethyl] phosphine (TCEP), 10 μM ZnCl2, 200 mM NaCl) and further treated with sonication for 10 min for complete lysis. The protein was purified over a Ni-NTA column (Amersham) and fractions containing pure protein were pooled, concentrated and run over a sizing column (Sephadex S200 26/60 global). The peak containing soluble protein was collected and run on an Ion-exchange column (MonoQ). Gradient elution (200 mM-500 mM NaCl) yielded pure protein. This protein was concentrated and dialyzed against dialysis buffer (20 mM Tris-HCl, 2 mM TCEP) overnight. The protein was aliquoted and frozen at −80° C. until further use.
Sirtuin-modulating compounds of Formula (I) that activated SIRT1 were identified using the assay described above and are shown below in Table 1. […]

Take `O=C(Nc1ccccn1)N1c2nc(N3CCCC(C(F)(F)F)C3)ccc2N2CCC[C@H]1C2` (single isomer, unassigned) [Example 11]: the Emax is at least 150% and the “TRP Activity (EC1.5, concentration of compound required to increase SIRT1 activity by 50% over control)” value is listed as “A (EC1.5<1 μM)”.
The corresponding values for `Cc1cc(-c2ccc3c(n2)N(C(=O)Nc2cnccn2)[C@H]2CCCN3C2)ccn1` [Example 13, (9S)-2-(2-methylpyridin-4-yl)-N-(pyrazin-2-yl)-8,9-dihydro-6H-5,9-methanopyrido[2,3-b] [1,4] diazocine-10(7H)-carboxamide] are at least 150% and “A (EC1.5<1 μM)”.
Consider `O=C(Nc1cc(OC[C@H](O)CO)ncn1)N1c2nc(-c3cccc(C(F)(F)F)c3)c(Cl)cc2N2CCC[C@H]1C2` [Example 70, (9S)-3-chloro-N-(6-((R)-2,3-dihydroxypropoxy)pyrimidin-4-yl)-2-(3-(trifluoromethyl)phenyl)-8,9-dihydro-6H-5,9-methanopyrido[2,3-b][1,4]diazocine-10(7H)-carboxamide], for which the Emax is at least 150% and the “TRP Activity (EC1.5, concentration of compound required to increase SIRT1 activity by 50% over control)” value is “B (EC1.5 1-25 μM)”.
For `O=C(Nc1cncc(OC[C@H](O)CO)c1)N1c2nc(-c3cccc(C(F)(F)F)c3)c(Cl)cc2N2CCC[C@H]1C2` [Example 76, (9S)-3-chloro-N-(5-((R)-2,3-dihydroxypropoxy)pyridin-3-yl)-2-(3-(trifluoromethyl)phenyl)-8,9-dihydro-6H-5,9-methanopyrido[2,3-b][1,4]diazocine-10(7H)-carboxamide], the Emax is at least 150% and the “TRP Activity (EC1.5, concentration of compound required to increase SIRT1 activity by 50% over control)” value was “A (EC1.5<1 μM)”.
For `O=C(Nc1cccnc1)N1c2nc(N3CCCC(C(F)(F)F)C3)ccc2N2CCC[C@H]1C2` (single isomer, unassigned) [Example 28], the “TRP Activity (EC1.5, concentration of compound required to increase SIRT1 activity by 50% over control)” value is given as “A (EC1.5<1 μM)”.
In the case of `O=C(Nc1cccc(OC[C@@H](O)CO)n1)N1c2nc(-c3cccc(C(F)(F)F)c3)c(Cl)cc2N2CCC[C@H]1C2` [Example 64, (9S)-3-chloro-N-(6-((S)-2,3-dihydroxypropoxy)pyridin-2-yl)-2-(3-(trifluoromethyl)phenyl)-8,9-dihydro-6H-5,9-methanopyrido[2,3-b][1,4]diazocine-10(7H)-carboxamide], the Emax was at least 150% and the “TRP Activity (EC1.5, concentration of compound required to increase SIRT1 activity by 50% over control)” value was “A (EC1.5<1 μM)”.
The corresponding values for `O=C(NC1CC1)c1nc2c(cc1Cl)N1CCC[C@@H](C1)N2C(=O)Nc1ccccn1` [Example 33, (9S)-3-chloro-N2-cyclopropyl-N10-(pyridin-2-yl)-8,9-dihydro-6H-5,9-methanopyrido[2,3-b][1,4]diazocine-2,10(7H)-dicarboxamide] are at least 150% and “B (EC1.5 1-25 μM)”.
The corresponding values for `Cc1cc(-c2ccc3c(n2)N(C(=O)Nc2ccncn2)[C@H]2CCCN3C2)ccn1` [Example 12, (9S)-2-(2-methylpyridin-4-yl)-N-(pyrimidin-4-yl)-8,9-dihydro-6H-5,9-methanopyrido[2,3-b][1,4]diazocine-10(7H)-carboxamide] are at least 150% and “A (EC1.5<1 μM)”.
The corresponding values for `O=C(Nc1cncnc1)N1c2nc(-c3cncc(C(F)(F)F)c3)ccc2N2CCC[C@H]1C2` [Example 3, (9S)-N-(pyrimidin-5-yl)-2-(5-(trifluoromethyl)pyridin-3-yl)-8,9-dihydro-6H-5,9-methanopyrido[2,3-b][1,4]diazocine-10(7H)-carboxamide] are at least 150% and “A (EC1.5<1 μM)”.
Regarding `CC(F)(F)CNC(=O)c1ccc2c(n1)N(C(=O)Nc1cc(OC[C@H](O)CO)ccn1)[C@H]1CCCN2C1` [Example 35, (9S)-N2-(2,2-difluoropropyl)-N10-(4-((R)-2,3-dihydroxypropoxy)pyridin-2-yl)-8,9-dihydro-6H-5,9-methanopyrido[2,3-b][1,4]diazocine-2,10(7H)-dicarboxamide], the Emax is at least 150% and the “TRP Activity (EC1.5, concentration of compound required to increase SIRT1 activity by 50% over control)” value was “A (EC1.5<1 μM)”.
The corresponding values for `O=C(Nc1cccnc1)N1c2nc(N3CCCC(C(F)(F)F)C3)ccc2N2CCC[C@H]1C2` (single isomer, unassigned) [Example 25] are at least 150% and “A (EC1.5<1 μM)”.
Take `O=C(Nc1ccccn1)N1c2nc(N3CCC[C@H]3C(F)(F)F)ccc2N2CCC[C@H]1C2` [Example 1, (9S)-N-(pyridin-2-yl)-2-((S)-2-(trifluoromethyl)pyrrolidin-1-yl)-8,9-dihydro-6H-5,9-methanopyrido[2,3-b][1,4]diazocine-10(7H)-carboxamide]: the Emax was at least 150% and the “TRP Activity (EC1.5, concentration of compound required to increase SIRT1 activity by 50% over control)” value is “B (EC1.5 1-25 μM)”.
The corresponding values for `O=C(Nc1cncc(OCC(O)CO)n1)N1c2nc(-c3cccc(C(F)(F)F)c3)c(Cl)cc2N2CCC[C@H]1C2` (stereo in doubt) [Example 67, (9S)-3-chloro-N-(6-((R)-2,3-dihydroxypropoxy)pyrazin-2-yl)-2-(3-(trifluoromethyl)phenyl)-8,9-dihydro-6H-5,9-methanopyrido[2,3-b][1,4]diazocine-10(7H)-carboxamide] are at least 150% and “A (EC1.5<1 μM)”.
`Cc1cc(-c2cc(C)c3c(n2)N(C(=O)Nc2cccnc2)[C@H]2CCCN3C2)ccn1` [Example 90, (9S)-4-methyl-2-(2-methylpyridin-4-yl)-N-(pyridin-3-yl)-8,9-dihydro-6H-5,9-methanopyrido[2,3-b][1,4]diazocine-10(7H)-carboxamide]: the Emax was at least 150% and the “TRP Activity (EC1.5, concentration of compound required to increase SIRT1 activity by 50% over control)” value is recorded as “A (EC1.5<1 μM)”.
